Laboratory results published in US11964990B2, “1,3,4,7-tetrahydro-2H-pyrrolo[3′,2′:5,6]pyrido[2,3-b][1,4]oxazepine bcl-2 inhibitors” (AbbVie Inc., priority 2022, dated 2024).
pEC50: −log10 of the molar value.

How the values were obtained:
[1] = tested on: RS4;11 cells; test: Cell viability assay (CellTiter-Glo) in RS4;11 cell line; format: cell-based; conditions: 24 hours, 10% Human Serum, 50% decrease in cell viability
Excerpt: (§1) The acute lymphoblastic leukemia (ALL) human cell line RS4;11 (ATCC, Manassas VA) was used as the primary human cell line to assess the cellular activity of compound of the present Examples in vitro and their efficacy in vivo. BH3 profiling, a mitochondrial assay that classifies blocks in the intrinsic apoptotic pathway, has shown that RS4;11 cells were highly dependent on Bcl-2 protein for survival and were sensitive to a Bcl-2 inhibitor (Blood. 2008; 111(4):2300-2309). […] The acute lymphoblastic leukemia cell line Molt-4, which is derived from immature T-lymphoid cells (T-ALL), was used as a counter screen assay.
(§2) Frozen RS4;11 or Molt-4 cells (ATCC, Manassas, VA, USA) were thawed overnight in RPMI 1640 media (Thermo Fisher Scientific, Waltham, MA, USA) supplemented with 1% penicillin/streptomycin (Thermo Fisher Scientific, Waltham, MA, USA), and 10% Human Serum (Sigma, St. Louis, MO, USA). 3000 Cells (0.1×10^6/mL) were seeded in each well of 384-well plate and were treated for 24 hours in a humidified chamber with 5% CO2. Cell viability was determined by CellTiter-Glo as described by the manufacturer's instructions (Promega Corporation, Madison, WI, USA). Responses were determined as a percentage of the control treated cells and the effective concentration (EC50) to induce a 50% decrease in cell viability were determined from sigmoidal dose-response curves using Dotmatics (Dotmatics Software Company, Bishops Stortford, Hertfordshire, England).

[2] = tested on: Molt-4 cells; test: Cell viability counter screen assay (CellTiter-Glo) in Molt-4 cells; format: cell-based; conditions: 24 hours, 10% Human Serum, 50% decrease in cell viability
Excerpt: as §1, §2

Row | pEC50 [1] | Structure (SMILES) | pEC50 [2]
1 | 8.53 | CO[C@H]1CC[C@H](CNc2ccc(S(=O)(=O)NC(=O)c3ccc(N4CCN5CC6=C(c7ccc(Cl)cc7)CC(C)(C)C[C@H]6OCCCOC[C@@H]5C4)cc3N3CCCOc4nc5[nH]ccc5cc43)cc2[N+](=O)[O-])OC1 [Example 13, 4-((4aS,10aR)-14-(4-chlorophenyl)-12,12-dimethyl-1,2,4a,5,8,9,10a,11,13,15-decahydro-7H,12H-benzo[f]pyrazino[2,1-c][1,8]dioxa[4]azacycloundecin-3(4H)-yl)-2-(3,4-dihydro-2H-pyrrolo[3′,2′:5,6]pyrido[2,3-b][1,4]oxazepin-1(7H)-yl)-N-((4-((((2R,5S)-5-methoxytetrahydro-2H-pyran-2-yl)methyl)amino)-3-nitrophenyl)sulfonyl)benzamide] | 5.77
2 | 8.55 | CC1(C)CC(c2ccc(Cl)cc2)=C2CN3CCN(c4ccc(C(=O)NS(=O)(=O)c5ccc(NCC6(O)COC6)c([N+](=O)[O-])c5)c(N5CCCOc6nc7[nH]ccc7cc65)c4)C[C@H]3COCCCO[C@@H]2C1 [Example 17, 4-((4aS,10aR)-14-(4-chlorophenyl)-12,12-dimethyl-1,2,4a,5,8,9,10a,11,13,15-decahydro-7H,12H-benzo[f]pyrazino[2,1-c][1,8]dioxa[4]azacycloundecin-3(4H)-yl)-2-(3,4-dihydro-2H-pyrrolo[3′,2′:5,6]pyrido[2,3-b][1,4]oxazepin-1(7H)-yl)-N-((4-(((3-hydroxyoxetan-3-yl)methyl)amino)-3-nitrophenyl)sulfonyl)benzamide] | 6.14
3 | 8.10 | CC1(C)CC(c2ccc(Cl)cc2)=C2CN3CCN(c4ccc(C(=O)NS(=O)(=O)c5ccc(OCC6(F)CCN(C7COC7)CC6)c(Cl)c5)c(N5CCCOc6nc7[nH]ccc7cc65)c4)C[C@H]3COCCCO[C@@H]2C1 [Example 9, N-(3-chloro-4-{[4-fluoro-1-(oxetan-3-yl)piperidin-4-yl]methoxy}benzene-1-sulfonyl)-4-[(4aS,10aR)-14-(4-chlorophenyl)-12,12-dimethyl-1,2,4a,5,8,9,11,12,13,15-decahydro-7H,10aH-pyrazino[2,1-g][1,5,8]benzodioxazacycloundecin-3(4H)-yl]-2-(3,4-dihydro-2H-pyrrolo[3′,2′:5,6]pyrido[2,3-b][1,4]oxazepin-1(7H)-yl)benzamide] | 5.25
4 | 8.31 | CO[C@H]1C[C@@H](CNc2ccc(S(=O)(=O)NC(=O)c3ccc(N4CCN5CC6=C(c7ccc(Cl)cc7)CC(C)(C)C[C@H]6OCCCOC[C@@H]5C4)cc3N3CCCOc4nc5[nH]ccc5cc43)cc2[N+](=O)[O-])C1 [Example 24] | < 5.00
5 | 8.36 | COC1(CNc2ccc(S(=O)(=O)NC(=O)c3ccc(N4CCN5CC6=C(c7ccc(Cl)cc7)CC(C)(C)C[C@H]6OCCCOC[C@@H]5C4)cc3N3CCCOc4nc5[nH]ccc5cc43)cc2[N+](=O)[O-])CCOCC1 [Example 26, 4-((4aS,10aR)-14-(4-chlorophenyl)-12,12-dimethyl-1,2,4a,5,8,9,10a,11,13,15-decahydro-7H,12H-benzo[f]pyrazino[2,1-c][1,8]dioxa[4]azacycloundecin-3(4H)-yl)-2-(3,4-dihydro-2H-pyrrolo[3′,2′:5,6]pyrido[2,3-b][1,4]oxazepin-1(7H)-yl)-N-((4-(((4-methoxytetrahydro-2H-pyran-4-yl)methyl)amino)-3-nitrophenyl)sulfonyl)benzamide] | < 5.00
6 | 8.83 | CC1(C)CC(c2ccc(Cl)cc2)=C2CN3CCN(c4ccc(C(=O)NS(=O)(=O)c5ccc(NC[C@H]6CC[C@@](C)(O)CC6)c([N+](=O)[O-])c5)c(N5CCCOc6nc7[nH]ccc7cc65)c4)C[C@H]3COCCCO[C@@H]2C1 [Example 36, 4-((4aS,10aR)-14-(4-chlorophenyl)-12,12-dimethyl-1,2,4a,5,8,9,10a,11,13,15-decahydro-7H,12H-benzo[f]pyrazino[2,1-c][1,8]dioxa[4]azacycloundecin-3(4H)-yl)-2-(3,4-dihydro-2H-pyrrolo[3′,2′:5,6]pyrido[2,3-b][1,4]oxazepin-1(7H)-yl)-N-((4-((((1s,4s)-4-hydroxy-4-methylcyclohexyl)methyl)amino)-3-nitrophenyl)sulfonyl)benzamide] | 6.93
7 | 8.82 | CC1(C)CC(c2ccc(Cl)cc2)=C2CN3CCN(c4ccc(C(=O)NS(=O)(=O)c5ccc(NC[C@H]6C[C@](O)(CF)C6)c([N+](=O)[O-])c5)c(N5CCCOc6nc7[nH]ccc7cc65)c4)C[C@H]3COCCCO[C@@H]2C1 [Example 16, 4-((4aS,10aR)-14-(4-chlorophenyl)-12,12-dimethyl-1,2,4a,5,8,9,10a,11,13,15-decahydro-7H,12H-benzo[f]pyrazino[2,1-c][1,8]dioxa[4]azacycloundecin-3(4H)-yl)-2-(3,4-dihydro-2H-pyrrolo[3′,2′:5,6]pyrido[2,3-h][1,4]oxazepin-1(7H)-yl)-N-((4-((((1s,3s)-3-(fluoromethyl)-3-hydroxycyclobutyl)methyl)amino)-3-nitrophenyl)sulfonyl)benzamide] | 5.90
8 | 8.49 | CN1CCC(Nc2ccc(S(=O)(=O)NC(=O)c3ccc(N4CCN5CC6=C(c7ccc(Cl)cc7)CC(C)(C)C[C@H]6OCCCOC[C@@H]5C4)cc3N3CCCOc4nc5[nH]ccc5cc43)cc2[N+](=O)[O-])CC1 [Example 31, 4-((4aS,10aR)-14-(4-chlorophenyl)-12,12-dimethyl-1,2,4a,5,8,9,10a,11,13,15-decahydro-7H,12H-benzo[f]pyrazino[2,1-c][1,8]dioxa[4]azacycloundecin-3(4H)-yl)-2-(3,4-dihydro-2H-pyrrolo[3′,2′:5,6]pyrido[2,3-b][1,4]oxazepin-1(7H)-yl)-N-((4-((1-methylpiperidin-4-yl)amino)-3-nitrophenyl)sulfonyl)benzamide] | 5.91
9 | 8.44 | CC1(C)CC(c2ccc(Cl)cc2)=C2CN3CCN(c4ccc(C(=O)NS(=O)(=O)c5ccc(NC[C@H]6C[C@@](O)(CF)C6)c([N+](=O)[O-])c5)c(N5CCCOc6nc7[nH]ccc7cc65)c4)C[C@H]3COCCCO[C@@H]2C1 [Example 8, 4-((4aS,10aR)-14-(4-chlorophenyl)-12,12-dimethyl-1,2,4a,5,8,9,10a,11,13,15-decahydro-7H,12H-benzo[f]pyrazino[2,1-c][1,8]dioxa[4]azacycloundecin-3(4H)-yl)-2-(3,4-dihydro-2H-pyrrolo[3′,2′:5,6]pyrido[2,3-b][1,4]oxazepin-1(7H)-yl)-N-((4-((((1r,3r)-3-(fluoromethyl)-3-hydroxycyclobutyl)methyl)amino)-3-nitrophenyl)sulfonyl)benzamide] | 5.13

Row | Structure (SMILES) | pEC50 [1] | pEC50 [2]
10 | C[C@@H]1CC[C@H](CNc2ccc(S(=O)(=O)NC(=O)c3ccc(N4CCN5CC6=C(c7ccc(Cl)cc7)CC(C)(C)C[C@H]6OCCCOC[C@@H]5C4)cc3N3CCCOc4nc5[nH]ccc5cc43)cc2[N+](=O)[O-])OC1 [Example 21, 4-((4aS,10aR)-14-(4-chlorophenyl)-12,12-dimethyl-1,2,4a,5,8,9,10a,11,13,15-decahydro-7H,12H-benzo[f]pyrazino[2,1-c][1,8]dioxa[4]azacycloundecin-3(4H)-yl)-2-(3,4-dihydro-2H-pyrrolo[3′,2′:5,6]pyrido[2,3-b][1,4]oxazepin-1(7H)-yl)-N-((4-((((2R,5R)-5-methyltetrahydro-2H-pyran-2-yl)methyl)amino)-3-nitrophenyl)sulfonyl)benzamide] | 8.31 | 5.48
11 | CC1(C)CC(c2ccc(Cl)cc2)=C2CN3CCN(c4ccc(C(=O)NS(=O)(=O)c5ccc(NC[C@H]6CC[C@H](O)CO6)c([N+](=O)[O-])c5)c(N5CCCOc6nc7[nH]ccc7cc65)c4)C[C@H]3COCCCO[C@@H]2C1 [Example 12, 4-((4aS,10aR)-14-(4-chlorophenyl)-12,12-dimethyl-1,2,4a,5,8,9,10a,11,13,15-decahydro-7H,12H-benzo[f]pyrazino[2,1-c][1,8]dioxa[4]azacycloundecin-3(4H)-yl)-2-(3,4-dihydro-2H-pyrrolo[3′,2′:5,6]pyrido[2,3-b][1,4]oxazepin-1(7H)-yl)-N-((4-((((2R,5S)-5-hydroxytetrahydro-2H-pyran-2-yl)methyl)amino)-3-nitrophenyl)sulfonyl)benzamide] | 9.02 | 6.08
12 | CC1(C)CC(c2ccc(Cl)cc2)=C2CN3CCN(c4ccc(C(=O)NS(=O)(=O)c5ccc(NC[C@H]6COCCO6)c([N+](=O)[O-])c5)c(N5CCCOc6nc7[nH]ccc7cc65)c4)C[C@H]3COCCCO[C@@H]2C1 [Example 3, N-((4-((((S)-1,4-dioxan-2-yl)methyl)amino)-3-nitrophenyl)sulfonyl)-4-((4aS,10aR)-14-(4-chlorophenyl)-12,12-dimethyl-1,2,4a,5,8,9,10a,11,13,15-decahydro-7H,12H-benzo[f]pyrazino[2,1-c][1,8]dioxa[4]azacycloundecin-3(4H)-yl)-2-(3,4-dihydro-2H-pyrrolo[3′,2′:5,6]pyrido[2,3-b][1,4]oxazepin-1(7H)-yl)benzamide] | 8.87 | 5.85
